One series has as its system high-fat diet-fed mice. Kind of series: Anti-obesity effect by repeated administration for 8 weeks in obesity model induced by high-fat diet. The class given is in vivo, C57BL/6 mice. The conditions noted are these: HFD mice. As for the experimental part:
6-week-old male C57BL/6 mice (Orient Bio) were used after being acclimated for one week. A high-fat diet was fed to induce obesity. D12451 (Calorie composition: 45% of fats, 35% of carbohydrates, and 20% of proteins, Research Diets, Inc.) was used as the high-fat diet, and Purina Rodent Chow was used as a normal diet. The mice were allowed to freely access feed and drinking water. The CMO1 mixture was administered together with the […] feed at a weight ratio of 0.1% (w/w) and 0.25% (w/w). Xenical™ (orlistat, Sigma, MO, USA), as a control drug, was administered together with the […] feed in a weight ratio of 0.1% (w/w). A daily dose of the CMO1 mixture, calculated based on an average daily feed intake, was 70 mg/kg/day in the case of 0.1%, and 190 mg/kg/day in the case of 0.25%, and a daily dose of Xenical™ was […]. Body weights and feed intakes were measured every week, and organs were excised and weighed in autopsy after 8 weeks and then stored at −80° C. In autopsy, blood was collected from the abdominal vein after laparotomy under deep anesthesia. The blood was stored in a cryogenic refrigerator according to analysis conditions and thawed immediately before initiating the experiment. Levels of total cholesterol, triglyceride, HDL cholesterol, and LDL cholesterol were analyzed using an automatic blood biochemistry analyzer (Hitachi, Japan). In order to analyze size changes in adipocytes and hepatocytes caused by accumulation of fats, the organ was immobilized with 10% neutralized formalin (Microme, USA) for 24 hours, embedded into paraffin blocks via a general tissue treatment process, and sectioned into 4 μm slices. The slices were hydrated and stained with hematoxylin and eosin (H&E). The stained tissue was observed using an optical microscope (BX51, Olympus, Japan) to measure sizes of cells. […] All measurement values of each experiment are expressed as mean±standard error. […]

For the next series, the target named is T1, pancreatic lipase (Homo sapiens, UniProt P16233).
T1 sequence (P16233 17-465): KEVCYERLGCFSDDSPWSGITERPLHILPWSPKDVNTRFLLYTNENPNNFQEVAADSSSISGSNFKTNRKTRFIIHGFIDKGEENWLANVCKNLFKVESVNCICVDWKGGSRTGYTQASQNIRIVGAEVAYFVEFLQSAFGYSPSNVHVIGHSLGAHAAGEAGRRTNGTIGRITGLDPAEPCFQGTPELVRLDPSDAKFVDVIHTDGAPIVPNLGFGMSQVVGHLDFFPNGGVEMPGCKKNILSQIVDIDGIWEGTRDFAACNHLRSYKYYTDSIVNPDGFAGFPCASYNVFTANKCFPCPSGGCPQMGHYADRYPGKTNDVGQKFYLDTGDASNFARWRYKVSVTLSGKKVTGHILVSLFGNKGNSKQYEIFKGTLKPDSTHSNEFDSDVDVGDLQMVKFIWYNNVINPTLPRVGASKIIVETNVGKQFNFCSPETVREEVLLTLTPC
The conditions noted are these: background statement; cited from earlier work.

The conditions of series [1]: people taking Reductil, background statement; cited from earlier work.
[2] abbreviates: during 8-week administration in feed.

The values that follow come from patent publication US11484562B2, “Composition for preventing or treating obesity comprising natural mixture extracts” (KOREA INSTITUTE OF ORIENTAL MEDICINE, priority 2018, dated 2022).

For the compound `CCCCCCCCCCC[C@@H](C[C@@H]1OC(=O)[C@H]1CCCCCC)OC(=O)[C@H](CC(C)C)NC=O` [Xenical, Orlistat], the hardness of excrement result in the series with high-fat diet-fed mice (8-week administration in feed) is “very soft excrement”. Also, in the series on high-fat diet-fed mice (setting [2]), the “appearance of hair during administration” value was “oily and lumpy hair”; the “diarrhea (side effect)” value is listed as “serious diarrhea”. Further, on pancreatic lipase, the “inhibition of absorption of dietary fat” value is recorded as “approximately 30%”.
Turning to `CC(C)CC(N(C)C)C1(c2ccc(Cl)cc2)CCC1` (centres unmarked) [Reductil, Sibutramine], the “higher number of cardiovascular events versus a control group” value in series [1] is 16%.
